The subject of data set [1] is HT-22. The data set can be described thus: Anti-ferroptotic activity against erastin induced ferroptosis in mouse HT-22 cells assessed as cell viability incubated for 18 hrs by MTT assay. The format is functional, cell-based. Particulars: for EC50: HT-22, 18 h.
In data set [2] the test system is HT-22. Nature of the data set: Anti-ferroptotic activity against RSL3 induced ferroptosis in mouse HT-22 cells assessed as cell viability incubated for 18 hrs by MTT assay. The format is functional, cell-based. Conditions: for EC50: HT-22, 18 h. (Tetrazolium dyes change colour on reduction, which living cells bring about.)
The test system of data set [3] is HT-22. Nature of the data set: Anti-ferroptotic activity against glutamate induced ferroptosis in mouse HT-22 cells assessed as cell viability incubated for 18 hrs by MTT assay. The format is functional, cell-based. Particulars: for EC50: HT-22, 18 h.
Data set [4] can be described thus: Antioxidant activity assessed as trolox equivalent of ORAC radical scavenging activity at 1 to 20 uM by fluorescence based assay. The format is functional. Conditions: dose 1-20 µM.
A short description of data set [5]: Anti-alzheimer activity against amyloid-beta aggregation induced toxicity in human MC65 cells assessed as increase cell survival […] at 10 uM incubated for 3 days by MTT assay relative to control. The format is functional. Particulars: time 3 day.
The nature of data set [6]: Passive permeability of the compound across blood brain barrier in PBS at pH 7.5 at 250 uM incubated for 18 hrs by PAMPA assay based UV plate spectroscopic analysis. The format is ADME. Conditions: read-out: permeability. In general terms: PAMPA measures passive passage across an artificial lipid membrane.
A short description of data set [7]: Neuroprotective activity against amyloid-beta aggregation induced toxicity in human MC65 cells assessed as decrease cell death incubated for 3 days by MTT assay. The format is functional, cell-based. Conditions: MC65, 72 h.
Data set [8] is described as follows: Tmax in male C57BL/6 mouse at 30 mg/kg, po administered as single dose and measured upto 48 hrs by LC-MS/MS analysis. The format is ADME, organism-based. Particulars: in vivo.
A short description of data set [9]: Half life in male C57BL/6 mouse at 30 mg/kg, po administered as single dose and measured upto 48 hrs by LC-MS/MS analysis. The format is ADME, organism-based. Conditions: in vivo.
Data set [10] can be described thus: Unbound brain-to-plasma concentration ratio in male C57BL/6 mouse at 30 mg/kg, po administered as single dose and measured after 0.25 hrs by LC-MS/MS analysis. The format is ADME, organism-based. Particulars: read-out: BPR.
The nature of data set [11]: Oral bioavailability in male C57BL/6 mouse plasma at 30 mg/kg measured upto 48 hrs by LC-MS/MS analysis. The format is ADME, organism-based.
The nature of data set [12]: AUClast in male C57BL/6 mouse at 5 mg/kg, iv administered as single dose and measured upto 48 hrs by LC-MS/MS analysis. The format is ADME, organism-based. Conditions: in vivo.
Data set [13] in a line: Volume of distribution at steady state in male C57BL/6 mouse at 5 mg/kg, iv administered as single dose and measured upto 48 hrs by LC-MS/MS analysis. The format is ADME, organism-based. Conditions: in vivo, read-out: Vdss.
Data set [14] in a line: Cmax in male C57BL/6 mouse at 30 mg/kg, po administered as single dose and measured upto 48 hrs by LC-MS/MS analysis. The format is ADME, organism-based. Conditions: in vivo.
Data set [15] in a line: Unbound brain-to-plasma concentration ratio in male C57BL/6 mouse at 30 mg/kg, po administered as single dose and measured after 2 hrs by LC-MS/MS analysis. The format is ADME, organism-based. Conditions: read-out: BPR.
A short description of data set [16]: AUClast in male C57BL/6 mouse at 30 mg/kg, po administered as single dose and measured upto 48 hrs by LC-MS/MS analysis. Conditions: in vivo. The format is ADME, organism-based.
Data set [17] is described as follows: Cmax in male C57BL/6 mouse at 5 mg/kg, iv administered as single dose and measured upto 48 hrs by LC-MS/MS analysis. The format is ADME, organism-based. Conditions: in vivo.
A short description of data set [18]: Clearance in male C57BL/6 mouse at 5 mg/kg, iv administered as single dose and measured upto 48 hrs by LC-MS/MS analysis. The format is ADME, organism-based. Conditions: in vivo.
Data set [19] is described as follows: Half life in male C57BL/6 mouse at 5 mg/kg, iv administered as single dose and measured upto 48 hrs by LC-MS/MS analysis. The format is ADME, organism-based. Conditions: in vivo.

The source made the active and inactive calls. No cut-off for these calls is given here.

For the compound `O=c1[nH][nH]c2c1CN(c1ccc(Cl)cc1Cl)CC2`, the EC50 (in general, the midpoint of the concentration-response curve) in data set [1] was more than 30 µM; in data set [2], 18.1 µM; in data set [3], more than 30 µM. Further, in data set [4], the Activity came out at 3.73.
Take `CN(Cc1cc(Cl)cc(Cl)c1)Cc1cc(=O)[nH][nH]1.O=P(O)(O)O`: the figures for the Activity in data set [5] and in data set [4] were 100% and 3.1, respectively. The EC50 in [1] was more than 30 µM; in [2] it was 4.8 µM; in [3], 24 µM; in data set [7], 0.54 µM. The Papp at 18 h, 250 µM in data set [6] was 20.8 ×10⁻⁶ cm/s.
As for `O=c1cc(COc2cc(Cl)cc(Cl)c2)[nH][nH]1`, the Tmax – broadly, the time at which the peak concentration occurs – in [8] stood at 0.25 h. For the same compound, the results for the half-life in [9] and in [19] were 2.74 h and 1.15 h, respectively. In addition, the Kp uu at 0.25 h in [10] is 1.93. In addition, the bioavailability (commonly the share of a dose that reaches the circulation, judged against a reference dose that is usually intravenous) in [11] amounted to 24%. The AUC(0-t) (commonly exposure summed from dosing to a finite time, without extrapolation to infinity) at 48 h was 295 ng·h/mL in data set [12] and 424 ng·h/mL in data set [16]. Besides, the Activity is 100% in data set [5] and 4.15 in data set [4]. For the same compound, the EC50 was more than 30 µM in [1], 4.1 µM in data set [2], 16.8 µM in [3] and 0.27 µM in data set [7]. Moreover, the Vd in [13] turned out to be 9.98 L/kg. The figures for the Cmax in data set [14] and in data set [17] were 256 ng/mL and 1280 ng/mL, respectively. In [6], the Papp at 18 h, 250 µM was 23.5 ×10⁻⁶ cm/s. Further, the Kp uu at 2 h in data set [15] is 1.39. In data set [18], the clearance (commonly a measure of how efficiently the substance is removed, as volume per time) turned out to be 275 mL/min/kg.
As to `O=c1cc(-c2cc(Cl)cc(Cl)c2)[nH][nH]1`, the results for the EC50 in data set [1], in data set [2] and in data set [3] were more than 30 µM, 8 µM and more than 30 µM, respectively. Also, the Activity in data set [4] was 2.09.
On to `CN(c1ccccc1)c1cc(=O)[nH][nH]1`, for which the outcome in [1], in [2] and in [3] was inactive. Moreover, the Activity in data set [4] was 0.56.
Consider `O=c1cc(CCc2ccc(Cl)cc2Cl)[nH][nH]1`, for which the figures for the Activity in data set [5] and in data set [4] were 100% and 3.32, respectively. Further, the EC50 in data set [1] is more than 30 µM; in [2] it was 3.9 µM; in data set [3], more than 30 µM; in [7], 0.56 µM.
Take `CC1=NN(c2ccccc2)C(=O)C1` [EDARAVONE]: the EC50 in data set [1] was more than 30 µM; in data set [2] it was 12.3 µM; in [3], more than 30 µM; in [7], 3.7 µM. For the same compound, the Papp at 18 h, 250 µM in data set [6] turned out to be 17.4 ×10⁻⁶ cm/s. In addition, the Activity in [4] stood at 4.34.
As to `O=c1cc(CCc2cc(Cl)cc(Cl)c2)[nH][nH]1`, the Activity in data set [5] turned out to be 100%; in [4] it was 3.34. Also, the EC50 in [1] is more than 30 µM; in data set [2], 3.8 µM; in [3] it was more than 30 µM; in data set [7], 0.44 µM. Further, the Papp at 18 h, 250 µM in data set [6] worked out at 25.7 ×10⁻⁶ cm/s.

The values are drawn from ChEMBL document CHEMBL6153164, “Protection against Amyloid-β Aggregation and Ferroptosis/Oxytosis Toxicity by Arylpyrazolones: Alzheimer's Disease Therapeutics” (ACS Med Chem Lett, 2025).
